These results are taken from patent US12091676B2, “Method for preparing non-human primate somatic cell cloned animal” (CENTER FOR EXCELLENCE IN BRAIN SCIENCE AND INTELLIGENCE …, priority 2018, dated 2024).

In this test the test system is cynomolgus monkey somatic cell nuclear transfer embryos. The experiment in a line: In vitro development of cynomolgus monkey somatic cell nuclear transfer embryos to blastocyst. In kind it is cell-based, cynomolgus monkey (Macaca fascicularis). An excerpt: Oocyte denucleation: 15-20 MII stage oocytes were transferred to a glass-bottomed and oil-sealed TH3 working drop containing […], and the position of the oocyte nucleus was observed under the inverted microscope assisted by the spindle imaging system, and the oocyte was fixed with an egg-holding needle and the oocyte nucleus was located at 3 o'clock direction. The Piezo Micromainpulator System was used to drive a flat needle with a diameter of 10 microns to break the zona pellucida, and the oocyte nucleus was removed. After the whole group of oocytes were enucleated, the enucleated oocytes were transferred to HECM-9 medium.
Injection of fibroblasts into enucleated oocytes: 15-20 enucleated oocytes were transferred to an oil-sealed TH3 working drop containing […], and the oocytes were fixed with an egg holding needle, and the polar body was placed at 12 o'clock or 6 o'clock direction. The laser zona pellucida system was used for breaking the zona pellucida to form a narrow slit. An oblique needle with a diameter of 15-18 microns was used for aspirating fibroblasts and transferring the cells to HVJ-E for 10 seconds, and then the cells were removed and injected into the perivitelline space of the enucleated egg cell through the zona pellucida slit, and the somatic cell would fuse into the oocyte in about 10 minutes.
Injection of cumulus cells into enucleated oocytes: 15-20 enucleated oocytes were transferred to an oil-sealed TH3 working drop containing […], and the oocytes were fixed with an egg holding needle, and the polar body was placed at 12 o'clock or at 6 o'clock direction. The laser zona pellucida system was used for breaking the zona pellucida to form a narrow slit. A 10-micron oblique needle was used for aspirating the cumulus cells and transferring the cells to HVJ-E to soak for 10 seconds, then the cells were removed and injected into the 9 o'clock position of the enucleated egg cell through the zona pellucida slit, and the somatic cell would fuse into the oocyte in about 10 minutes.
In vitro activation of nuclear transfer embryos: Embryo activation can be performed 1-1.5 hours after the fusion of somatic cells and enucleated oocytes. The embryos were transferred to TH3 containing 5 μM ionomycin for 5 minutes, then transferred to HECM-9 medium containing 2 mM 6-DMAP and 10 nM TSA for 5 hours, then transferred to HECM-9 containing 10 nM TSA and cultured for 5 hours, and finally transferred to HECM-9 medium for culture.
Kdm4d mRNA injection: 5-6 hours after embryo activation, the activated embryo was transferred to an oil-sealed TH3 working drop containing 5 μg/ml CB, the embryo was fixed with an egg-holding needle, and the Piezo Micromainpulator System was used to drive a flat injection needle with a diameter of 2-3 microns to break the zona pellucida and penetrate deep into the embryo. The embryo cell membrane was broken and 1000 ng/μl of Kdm4d mRNA was injected into the embryo, and each embryo was injected about 10 pl. After the injection, the embryos were transferred to HECM-9 medium and cultured at 37° C. and 5% CO2.
Embryo culture: cloned embryos were cultured in HECM-9 medium, and then transferred to HECM-9 medium containing 5% FBS at the 8-cell stage, and the medium was changed every other day until blastocysts were appeared on day 7-8.

Regarding `CC(/C=C/C(=O)NO)=C\[C@@H](C)C(=O)c1ccc(N(C)C)cc1` [TSA, Trichostatin, reference compound], the “embryos developed to the blastocyst stage (blastocysts/embryos)” value (SCNT embryos cultured in vitro, TSA 10 nM, 10 h during and after activation) is reported as 5/31. Further, the “blastocysts that had inner cell masses” value (out of 5 blastocysts, TSA 10 nM, 10 h) came to 2.

As to “Kdm5b: H3K4me3 demethylase injected into monkey somatic cell nuclear transfer embryos”, the “effect on improving the efficiency of monkey somatic cell nuclear transfer embryos” value is reported as “no significant effect”. Where the note is “20 injected embryos”, this molecule came in with a blastocyst rate of 10%. The “blastocysts obtained (number)” value (of 20 injected monkey somatic cell nuclear transfer embryos) came to 2.
